This passage reports IC50 and EC50 results from patent publication US8546389B2 (priority 2010, dated 2013).

SMILES strings stand for the structures.

The target of one assay is 1b (BK) NS5bΔ21 (Hepatitis C virus genotype 1b (isolate BK) (HCV), UniProt P26663). The assay can be described thus: HCV polymerase inhibition assay, genotype 1b. It counts as biochemical, HCV genotype 1b (BK). The note with it: 1b (BK) NS5bΔ21, 33P-GTP incorporation; read-out: 1b polymerase IC50 (range class). The protocol:
HCV polymerase reactions were carried out using a modified method of Howe et al., Antimicrobial Agents and Chemotherapy 2004 48(12): 4813-4821. Reactions contained a final concentration of, 0.5% DMSO, 50 nM, 1b (BK) NS5bΔ21, 20 mM Tris-HCl pH 7.5, 5 mM MgCl2, 5 mM MnCl2, 3 mM DTT, 0.05% BSA, 0.2 U/μL RNasin, 10 μg/mL Poly(rC) template, GTP (at Km) and 0.05 μCi/μL ^33P-GTP in a total reaction volume of 50 μL. Compounds were tested in a three fold dilution series, for example starting from 50 μM. Reactions were initiated with the addition of GTP and terminated after 1 hour with 50 μL ice cold 0.2 M EDTA. Terminated reactions were transferred to DEAE 96-well filter plates, unincorporated nucleotides washed from the filters and 50 μL scintillation fluid added prior to reading on a scintillation counter. Similarly, a genotype 3a (VRL-69) NS5bΔ21 polymerase enzyme assay was conducted using essentially the same method.
The compound concentration that reduced ^33P-GTP incorporation by 50% (IC50) was calculated using non-linear regression.

The subject of assay [1] is genotype 1b (Con 1) subgenomic replicon cell line. Briefly: HCV replicon assay, genotype 1b (Renilla luciferase). Format: cell-based, HCV genotype 1b (Con 1). The settings on record: Hepatitis C virus; genotype 1b replicon, 72 hours, luciferase; read-out: genotype 1b EC50 (range class). The protocol: A genotype 1b (Con 1) subgenomic replicon cell line based on Blight et al., Science 2000 290: 1972-1974, modified to express a Renilla luciferase reporter gene was used to assess antiviral activity of test compounds. Cell cultures were maintained in a sub-confluent state in DMEM with glutamine, 10% heat-inactivated foetal bovine serum (FBS) and G418 (Geneticin®).
For assay, cells were seeded at a density of 7000 cells/well into 96 well tissue culture trays in culture media lacking G418. Compounds were tested in a three fold dilution series, for example starting from 50 uM. After 72 hours incubation at 37° C. and 5% CO2, Renilla luciferase activity was quantified via the Promega Renilla Luciferase or Renilla-Glo™ Luciferase Assay Systems (Promega corporation. The same method was employed for replicon assays using subgenomic genotype 1a and 2a replicon cell lines with a seeding cell density of 5000 cells/well for the 2a cell lines.
The compound concentration that reduced luciferase activity by 50% (EC50) was calculated using non-linear regression.
For orientation: In antiviral work, replicon cells carry a viral genome segment that copies itself.

Chain of 1b (BK) NS5bΔ21 (P26663 2420-2989): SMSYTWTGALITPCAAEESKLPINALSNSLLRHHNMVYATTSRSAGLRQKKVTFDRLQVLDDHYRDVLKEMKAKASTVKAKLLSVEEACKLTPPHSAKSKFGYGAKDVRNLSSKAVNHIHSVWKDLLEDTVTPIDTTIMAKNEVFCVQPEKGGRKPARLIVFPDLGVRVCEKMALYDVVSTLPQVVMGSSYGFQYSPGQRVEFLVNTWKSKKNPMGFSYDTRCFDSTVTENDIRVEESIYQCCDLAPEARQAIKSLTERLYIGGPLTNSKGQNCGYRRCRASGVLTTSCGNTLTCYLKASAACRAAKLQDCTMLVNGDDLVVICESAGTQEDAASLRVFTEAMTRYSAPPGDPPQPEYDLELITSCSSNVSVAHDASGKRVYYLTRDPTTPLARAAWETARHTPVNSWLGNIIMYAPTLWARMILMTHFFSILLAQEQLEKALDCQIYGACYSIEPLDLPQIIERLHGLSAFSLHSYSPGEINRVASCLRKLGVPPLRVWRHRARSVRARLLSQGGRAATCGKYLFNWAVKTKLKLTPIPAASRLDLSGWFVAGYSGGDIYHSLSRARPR

Regarding `CCOC(=O)CCCC(c1cc2nn(-c3ccc(C)cc3)c(C(=O)NC)c2cc1C1CC1)S(C)(=O)=O` (racemic) [Compound 85, ethyl 5-[5-cyclopropyl-3-(methylcarbamoyl)-2-(4-methylphenyl)-2H-indazol-6-yl]-5-(methylsulfonyl)pentanoate], the IC50 at 1b (BK) NS5bΔ21 is 10 to 50 µM. For the same molecule, in assay [1], the EC50 was 10 to 50 µM. For `CCC(c1cc2nn(-c3ccc(C)cc3)c(C(=O)NC)c2cc1C1CC1)S(C)(=O)=O` (racemic) [Compound 86, 5-cyclopropyl-N-methyl-2-(4-methylphenyl)-6-[1-(methylsulfonyl)propyl]-2H-indazole-3-carboxamide], at 1b (BK) NS5bΔ21, the IC50 fell in the range of 10 to 50 µM. Further, the EC50 in assay [1] was in the range of 1 to 9.99 µM.

Take `CNC(=O)c1c2cc(C3CC3)c(N(CCCNC(=O)[C@@H]3CC(=O)N(C)C3)S(C)(=O)=O)cc2nn1-c1ccc(Br)cc1` (racemic) [Compound 182]: on 1b (BK) NS5bΔ21, the IC50 is less than 0.99 µM. Besides, the concentration for a half-maximal effect (EC50) in assay [1] is 1 to 9.99 µM. On the same counts, the results for `CNC(=O)c1c2cc(C3CC3)c(N([C@H]3CCNC3)S(C)(=O)=O)cc2nn1-c1ccc(Br)cc1` (racemic) [Compound 195] are 1 to 9.99 µM and 10 to 50 µM. On the same counts, the results for `CC[C@H](c1cc2nn(-c3ccc(F)cc3)c(C(=O)NC)c2cc1C1CC1)S(C)(=O)=O` (racemic) [Compound 240] are 10 to 50 µM and 10 to 50 µM. On to `CNC(=O)c1c2cc(C3CC3)c([C@@H]3CN(Cc4ccccc4)C[C@H]3C(C)=O)cc2nn1-c1ccc(Br)cc1` (relative stereo) [Compound 80, trans-6-(4-acetyl-1-benzylpyrrolidin-3-yl)-2-(4-bromophenyl)-5-cyclopropyl-N-methyl-2H-indazole-3-carboxamide], for which the EC50 in assay [1] lay within 1 to 9.99 µM. Turning to `CNC(=O)c1c2cc(C3CC3)c(NS(C)(=O)=O)cc2nn1-c1ccc(Br)cc1` [Compound 1, 2-(4-bromophenyl)-5-cyclopropyl-N-methyl-6-[(methylsulfonyl)amino]-2H-indazole-3-carboxamide], on 1b (BK) NS5bΔ21, the IC50 is 10 to 50 µM. In addition, in assay [1], the concentration giving a half-maximal response (EC50) was 1 to 9.99 µM. With `CNC(=O)c1c2cc(C3CC3)c(N(CCO)S(C)(=O)=O)cc2nn1-c1ccc(Oc2ccc(F)cc2)cc1` [Compound 3, 5-cyclopropyl-2-[4-(4-fluorophenoxy)phenyl]-6-[(2-hydroxyethyl)-(methylsulfonyl)amino]-N-methyl-2H-indazole-3-carboxamide], the IC50 at 1b (BK) NS5bΔ21 was in the range of 1 to 9.99 µM. Besides, the EC50 in assay [1] was less than 0.99 µM. In the case of `CNC(=O)c1c2cc(C3CC3)c(N(CCNC(=O)Cc3nn[nH]n3)S(C)(=O)=O)cc2nn1-c1ccc(Br)cc1` [Compound 8, 2-(4-bromophenyl)-5-cyclopropyl-N-methyl-6-[(methylsulfonyl){2-[(2H-tetrazol-5-ylacetyl)amino]ethyl}amino]-2H-indazole-3-carboxamide], at 1b (BK) NS5bΔ21, the concentration for half-maximal inhibition (IC50) was less than 0.99 µM. Further, the EC50 in assay [1] lay in the range of 10 to 50 µM. Consider `CNC(=O)c1c2cc(OC)c(N(CCO)S(C)(=O)=O)cc2nn1-c1ccc(F)cc1` [Compound 12, 2-(4-fluorophenyl)-6-[2-hydroxyethyl(methylsulfonyl)amino]-5-methoxy-N-methyl-indazole-3-carboxamide], for which the EC50 in assay [1] fell in the range of 10 to 50 µM.

As for `CNC(=O)c1c2cc(C3CC3)c(N(CCO)S(C)(=O)=O)cc2nn1-c1ccc(F)cc1` [Compound 14, 5-cyclopropyl-2-(4-fluorophenyl)-6-[(2-hydroxyethyl)(methylsulfonyl)amino]-N-methyl-2H-indazole-3-carboxamide], the IC50 on 1b (BK) NS5bΔ21 was 10 to 50 µM. For the same molecule, the EC50 in assay [1] was in the range of 1 to 9.99 µM. As to `CNC(=O)c1c2cc(C3CC3)c(N(CCOC(=O)c3ccccc3C(=O)O)S(C)(=O)=O)cc2nn1-c1ccc(F)cc1` [Compound 15, 2-[(2-{[5-cyclopropyl-2-(4-fluorophenyl)-3-(methylcarbamoyl)-2H-indazol-6-yl](methylsulfonyl)amino}ethoxy)carbonyl]benzoic acid], the IC50 at 1b (BK) NS5bΔ21 lay within 1 to 9.99 µM.

On to `CNC(=O)c1c2cc(C3CC3)c(N(CCO)S(C)(=O)=O)cc2nn1-c1ccc(Oc2ccccc2F)cc1` [Compound 18], for which the IC50 at 1b (BK) NS5bΔ21 fell in the range of 1 to 9.99 µM. In assay [1], the EC50 fell in the range of 1 to 9.99 µM. In the case of `CNC(=O)c1c2cc(C3CC3)c(N(CCO)S(C)(=O)=O)cc2nn1-c1ccc(Nc2ccc(F)cc2)cc1` [Compound 19], the IC50 at 1b (BK) NS5bΔ21 was less than 0.99 µM. The EC50 in assay [1] was less than 0.99 µM. Consider `CCN(c1cc2nn(-c3ccc(Br)cc3)c(C(=O)NC)c2cc1C1CC1)S(C)(=O)=O` [Compound 20], for which the IC50 at 1b (BK) NS5bΔ21 is less than 0.99 µM. The EC50 in assay [1] was less than 0.99 µM. For the molecule `CCN(c1cc2nn(-c3ccc(Oc4ccc(F)cc4)cc3)c(C(=O)NC)c2cc1C1CC1)S(C)(=O)=O` [Compound 23], on 1b (BK) NS5bΔ21, the IC50 is less than 0.99 µM. Also, in assay [1], the EC50 was less than 0.99 µM. With `CNC(=O)c1c2cc(C3CC3)c(N(CCO)S(C)(=O)=O)cc2nn1-c1ccc(Br)cc1` [Compound 24], on 1b (BK) NS5bΔ21, the IC50 is less than 0.99 µM. Also, the EC50 in assay [1] is less than 0.99 µM. On to `CCN(c1cc2nn(-c3ccc(Nc4ccccc4F)cc3)c(C(=O)NC)c2cc1C1CC1)S(C)(=O)=O` [Compound 25], for which the IC50 on 1b (BK) NS5bΔ21 is less than 0.99 µM. Further, the EC50 in assay [1] is less than 0.99 µM. Consider `CNC(=O)c1c2cc(C3CC3)c(N(CCO)S(C)(=O)=O)cc2nn1-c1ccc(Nc2ccccc2F)cc1` [Compound 26], for which the IC50 at 1b (BK) NS5bΔ21 is less than 0.99 µM. The EC50 in assay [1] was less than 0.99 µM. With `CNC(=O)c1c2cc(C3CC3)c(N(CCO)S(C)(=O)=O)cc2nn1-c1ccc(Nc2ccccc2)cc1` [Compound 27], at 1b (BK) NS5bΔ21, the IC50 is less than 0.99 µM. The EC50 in assay [1] is less than 0.99 µM.

For `CNC(=O)c1c2cc(C3CC3)c(N(CCCO)S(C)(=O)=O)cc2nn1-c1ccc(Oc2ccccc2F)cc1` [Compound 29], at 1b (BK) NS5bΔ21, the IC50 was less than 0.99 µM. Moreover, the EC50 in assay [1] was less than 0.99 µM.

With `CNC(=O)c1c2cc(C3CC3)c(N(CCCO)S(C)(=O)=O)cc2nn1-c1ccc(Oc2ccc(F)cc2)cc1` [Compound 30], the IC50 at 1b (BK) NS5bΔ21 was less than 0.99 µM. Further, in assay [1], the EC50 was less than 0.99 µM.

Regarding `CNC(=O)c1c2cc(C3CC3)c(N(CCNC(=O)Cc3nn[nH]n3)S(C)(=O)=O)cc2nn1-c1ccc(Nc2ccc(F)cc2)cc1` [Compound 31], the IC50 at 1b (BK) NS5bΔ21 was less than 0.99 µM. Same read-out and setting: the value for `CNC(=O)c1c2cc(C3CC3)c(N(CCO)S(C)(=O)=O)cc2nn1-c1ccc(Nc2cccc(O)c2)cc1` [Compound 33] was 10 to 50 µM. `CNC(=O)c1c2cc(C3CC3)c(N(CCO)S(C)(=O)=O)cc2nn1-c1ccc(Oc2ccccc2)cc1` [Compound 35]: the IC50 at 1b (BK) NS5bΔ21 lay in the range of 1 to 9.99 µM. For the same molecule, in assay [1], the EC50 is less than 0.99 µM. For `CNC(=O)c1c2cc(C3CC3)c(N(CCNC(C)=O)S(C)(=O)=O)cc2nn1-c1ccc(Oc2ccc(F)cc2)cc1` [Compound 36] the same measures were 1 to 9.99 µM and 1 to 9.99 µM.

On to `CNC(=O)c1c2cc(C3CC3)c(N(CCNC(C)=O)S(C)(=O)=O)cc2nn1-c1ccc(Br)cc1` [Compound 37], for which the half-maximal inhibitory concentration (IC50) on 1b (BK) NS5bΔ21 lay within 1 to 9.99 µM. Further, the EC50 in assay [1] lay in the range of 1 to 9.99 µM. In the case of `CCN(c1cc2nn(-c3ccc(NC(C)C)cc3)c(C(=O)NC)c2cc1C1CC1)S(C)(=O)=O` [Compound 38], the IC50 on 1b (BK) NS5bΔ21 was 1 to 9.99 µM. Further, the EC50 in assay [1] is less than 0.99 µM. Regarding `CCn1ccnc1-c1cc2nn(-c3ccc(F)cc3)c(C(=O)NC)c2cc1C1CC1` [Compound 84, 5-Cyclopropyl-6-(1-ethyl-1H-imidazol-2-yl)-2-(4-fluorophenyl)-N-methyl-2H-indazole-3-carboxamide], the EC50 in assay [1] was in the range of 10 to 50 µM. `CNC(=O)c1c2cc(C3CC3)c(N3CCNS3(=O)=O)cc2nn1-c1ccc(Br)cc1` [Compound 103, 2-(4-Bromophenyl)-5-cyclopropyl-6-(1,1-dioxido-1,2,5-thiadiazolidin-2-yl)-N-methyl-2H-indazole-3-carboxamide]: on 1b (BK) NS5bΔ21, the IC50 lay within 1 to 9.99 µM. Still for that read-out and setting: the value for `CCN(c1cc2nn(-c3ccc(OCC(C)C)cc3)c(C(=O)NC)c2cc1C1CC1)S(C)(=O)=O` [Compound 121] was 1 to 9.99 µM. On to `CCN(c1cc2nn(-c3ccc(F)cc3)c(C(=O)NC)c2cc1C(C)C)S(C)(=O)=O` [Compound 130], for which, in assay [1], the EC50 is 10 to 50 µM. As for `CCN(c1ccc2c(C(=O)NC)n(-c3ccc(F)cc3)nc2c1)S(C)(=O)=O` [Compound 137], the IC50 at 1b (BK) NS5bΔ21 lay within 10 to 50 µM. The same measure, in the same setting: next, `CNC(=O)c1c2cc(C3CC3)c(-c3cncn3C)cc2nn1-c1ccc(F)cc1` [Compound 158]: 10 to 50 µM. Consider `CNC(=O)c1c2cc(C3CC3)c(-c3ncc(CO)s3)cc2nn1-c1ccc(F)cc1` [Compound 159], for which the concentration for a half-maximal effect (EC50) in assay [1] is 10 to 50 µM.

Take `CCN(C)S(=O)(=O)c1cc2nn(-c3ccc(F)cc3)c(C(=O)NC)c2cc1C1CC1` [Compound 227]: the EC50 in assay [1] is 10 to 50 µM.

The term IC50 denotes the concentration that gives 50% inhibition. For orientation: EC50 means the concentration giving half of the maximal effect.
